Test: xn = mol fraction of the nth substance listed
Details: Liquid; for electrical conductivity: 100 kPa, Alternating current cell with electrodes, x2 = 0.2589; for viscosity / mass density: 101 kPa; for viscosity: Falling or rolling sphere viscometry; for mass density: Vibrating tube method

N#CCCCC#N [pentanedinitrile] + CCCC[N+]1(C)CCCC1.O=S(=O)([N-]S(=O)(=O)C(F)(F)F)C(F)(F)F
Details | electrical conductivity [S/m]
292.9 K | 0.572
297.4 K | 0.651
304.3 K | 0.782
314.5 K | 1
323.2 K | 1.21
336 K | 1.55

Details | mass density [kg/m3] | viscosity [mPa·s]
293.15 K, x2 = 0 | 987 | 6.97
293.15 K, x2 = 0.1003 | 1094.2 | 9.92
293.15 K, x2 = 0.1997 | 1167.5 | 13.34
293.15 K, x2 = 0.2999 | 1222.5 | 17.57
293.15 K, x2 = 0.4002 | 1266.7 | 22.88
293.15 K, x2 = 0.5006 | 1300.5 | 28.92
293.15 K, x2 = 0.6003 | 1327.5 | 38.47
293.15 K, x2 = 0.6998 | 1349.1 | 48.33
293.15 K, x2 = 0.8004 | 1368.5 | 61.37
293.15 K, x2 = 0.9002 | 1385.4 | 78.19
298.15 K, x2 = 0 | 983.1 | 6.12
298.15 K, x2 = 0.1003 | 1090.3 | 8.55
298.15 K, x2 = 0.1997 | 1163.3 | 11.42
298.15 K, x2 = 0.2999 | 1218.1 | 14.81
298.15 K, x2 = 0.4002 | 1262.2 | 19.17
298.15 K, x2 = 0.5006 | 1296.1 | 23.95
298.15 K, x2 = 0.6003 | 1323.1 | 31.5
298.15 K, x2 = 0.6998 | 1344.8 | 39.56
298.15 K, x2 = 0.8004 | 1364.3 | 49.4
298.15 K, x2 = 0.9002 | 1380.9 | 62.15
303.15 K, x2 = 0 | 979.1 | 5.39
303.15 K, x2 = 0.1003 | 1086.2 | 7.42
303.15 K, x2 = 0.1997 | 1159 | 9.83
303.15 K, x2 = 0.2999 | 1213.8 | 12.69
303.15 K, x2 = 0.4002 | 1257.9 | 16.22
303.15 K, x2 = 0.5006 | 1291.7 | 20.1
303.15 K, x2 = 0.6003 | 1318.6 | 26.13
303.15 K, x2 = 0.6998 | 1340.3 | 32.56
303.15 K, x2 = 0.8004 | 1359.8 | 40.38
303.15 K, x2 = 0.9002 | 1376.4 | 50.27
313.15 K, x2 = 0 | 971.2 | 4.25
313.15 K, x2 = 0.1003 | 1077.9 | 5.78
313.15 K, x2 = 0.1997 | 1150.5 | 7.46
313.15 K, x2 = 0.2999 | 1205.1 | 9.52
313.15 K, x2 = 0.4002 | 1249 | 11.97
313.15 K, x2 = 0.5006 | 1282.8 | 14.66
313.15 K, x2 = 0.6003 | 1309.7 | 18.67
313.15 K, x2 = 0.6998 | 1331.3 | 22.97
313.15 K, x2 = 0.8004 | 1350.8 | 28.01
313.15 K, x2 = 0.9002 | 1367.2 | 34.37
323.15 K, x2 = 0 | 963.4 | 3.47
323.15 K, x2 = 0.1003 | 1069.7 | 4.6
323.15 K, x2 = 0.1997 | 1142 | 5.84
323.15 K, x2 = 0.2999 | 1196.5 | 7.39
323.15 K, x2 = 0.4002 | 1240.3 | 9.16
323.15 K, x2 = 0.5006 | 1274 | 11.11
323.15 K, x2 = 0.6003 | 1300.9 | 13.88
323.15 K, x2 = 0.6998 | 1322.5 | 16.93
323.15 K, x2 = 0.8004 | 1342 | 18.72
323.15 K, x2 = 0.9002 | 1358.2 | 24.65
333.15 K, x2 = 0 | 955.6 | 2.88
333.15 K, x2 = 0.1003 | 1061.5 | 3.72
333.15 K, x2 = 0.1997 | 1133.7 | 4.71
333.15 K, x2 = 0.2999 | 1188 | 5.85
333.15 K, x2 = 0.4002 | 1231.7 | 7.27
333.15 K, x2 = 0.5006 | 1265.2 | 8.67
333.15 K, x2 = 0.6003 | 1291.9 | 10.69
333.15 K, x2 = 0.6998 | 1313.8 | 13.01
333.15 K, x2 = 0.8004 | 1333 | 14.2
333.15 K, x2 = 0.9002 | – | 18.39
